Data from ChEMBL document CHEMBL3400025, “Synthesis, structural analysis and antitumor activity of novel 17α-picolyl and 17(E)-picolinylidene A-modified androstane derivatives” (Bioorg Med Chem, 2015).

Legend:
[1] = system: MRC5; assay: Antiproliferative activity against human MRC5 cells assessed as inhibition of cell growth after 48 hrs by MTT assay; type: functional, cell-based; conditions: MRC5, 48 h
[2] = system: MCF7; assay: Antiproliferative activity against ER positive human MCF7 cells assessed as inhibition of cell growth after 48 hrs by MTT assay; type: functional, cell-based; conditions: MCF7, 48 h
[3] = system: MCF7; assay: Cell cycle arrest in human MCF7 cells assessed as cells accumulation at G0/G1 phase at IC50 concentration after 48 hrs by flow cytometry (reference value: 47.55%); type: functional
[4] = system: MCF7; assay: Cell cycle arrest in human MCF7 cells assessed as cells accumulation at S phase at IC50 concentration after 48 hrs by flow cytometry (reference value: 29.30%); type: functional
[5] = system: MCF7; assay: Cell cycle arrest in human MCF7 cells assessed as cells accumulation at G2/M phase at IC50 concentration after 48 hrs by flow cytometry (Rvb =21.32 %); type: functional
[6] = system: MDA-MB-231; assay: Antiproliferative activity against ER negative human MDA-MB-231 cells assessed as inhibition of cell growth after 48 hrs by MTT assay; type: functional, cell-based; conditions: MDA-MB-231, 48 h
[7] = system: HT-29; assay: Antiproliferative activity against human HT-29 cells assessed as inhibition of cell growth after 48 hrs by MTT assay; type: functional, cell-based; conditions: HT-29, 48 h
[8] = system: HeLa; assay: Antiproliferative activity against human HeLa cells assessed as inhibition of cell growth after 48 hrs by MTT assay; type: functional, cell-based
[9] = Antiproliferative activity against human PC3 cells assessed as inhibition of cell growth after 48 hrs by MTT assay; type: functional, cell-based; conditions: PC-3, 48 h
[10] = system: A549; assay: Antiproliferative activity against human A549 cells assessed as inhibition of cell growth after 48 hrs by MTT assay; type: functional, cell-based; conditions: A549, 48 h
[11] = system: MCF7; assay: Induction of apoptosis in human MCF7 cells assessed as apoptotic morphological changes at IC50 concentration after 48 hrs by light microscopy; type: functional
[12] = system: MCF7; assay: Cell cycle arrest in human MCF7 cells assessed as cells accumulation at subG1 phase at IC50 concentration after 48 hrs by flow cytometry (Rvb =1.83 %); type: functional

Structure (SMILES): C[C@]12C/C(=N/O)C(=O)/C(=N\O)C1=CC[C@@H]1[C@@H]2CC[C@@]2(C)[C@H]1CC[C@@]2(O)Cc1ccccn1
- IC50 [1]: > 100 µM
- IC50 [2]: 40.1 µM
- Activity [3]: 47.66%
- Activity [4]: 29.03%
- Activity [5]: 21.23%
- IC50 [6]: 1.7 µM
- IC50 [7]: 56 µM
- IC50 [8]: 81.8 µM
- IC50 [9]: 8.7 µM
- IC50 [10]: 10.3 µM
- Activity [11]: 12.2%
- Activity [12]: 2.08%

Structure (SMILES): C[C@]12C/C(=N\O)C(=O)c3noc(c31)C[C@@H]1[C@@H]2CC[C@@]2(C)[C@H]1CC[C@@]2(O)Cc1ccccn1
- IC50 [1]: > 100 µM
- IC50 [2]: 25.3 µM
- IC50 [6]: 50.4 µM
- IC50 [7]: > 100 µM
- IC50 [8]: > 100 µM
- IC50 [9]: 6.6 µM
- IC50 [10]: > 100 µM

Structure (SMILES): C[C@]12CC[C@H](O)CC1=CC[C@@H]1[C@@H]2CC[C@]2(C)/C(=C/c3ccccn3)CC[C@@H]12
- IC50 [1]: > 100 µM
- IC50 [2]: > 100 µM
- IC50 [6]: > 100 µM
- IC50 [7]: > 100 µM
- IC50 [8]: > 100 µM
- IC50 [9]: > 100 µM
- IC50 [10]: > 100 µM

Structure (SMILES): COc1cccc2c1C(=O)c1c(O)c3c(c(O)c1C2=O)C[C@@](O)(C(=O)CO)C[C@@H]3O[C@H]1C[C@H](N)[C@H](O)[C@H](C)O1 [DOXORUBICIN]
- IC50 [2]: 0.12 µM
- IC50 [6]: 0.75 µM
- IC50 [7]: 7.86 µM
- IC50 [10]: 0.32 µM

Structure (SMILES): C[C@]12CCC(=O)C=C1CC[C@@H]1[C@@H]2CC[C@]2(C)/C(=C/c3ccccn3)CC[C@@H]12
- IC50 [1]: > 100 µM
- IC50 [2]: > 100 µM
- IC50 [6]: > 100 µM
- IC50 [7]: > 100 µM
- IC50 [8]: > 100 µM
- IC50 [10]: > 100 µM

Structure (SMILES): C[C@]12CCC(=O)C=C1CC[C@@H]1[C@@H]2CC[C@@]2(C)[C@H]1CC[C@@]2(O)Cc1ccccn1
- IC50 [1]: > 100 µM
- IC50 [2]: > 100 µM
- IC50 [6]: > 100 µM
- IC50 [7]: > 100 µM
- IC50 [8]: 57.8 µM
- IC50 [9]: > 100 µM
- IC50 [10]: 57.5 µM

Structure (SMILES): C[C@]12C/C(=C/O)C(=O)C=C1CC[C@@H]1[C@@H]2CC[C@]2(C)/C(=C/c3ccccn3)CC[C@@H]12
- IC50 [1]: > 100 µM
- IC50 [2]: > 100 µM
- IC50 [6]: > 100 µM
- IC50 [7]: > 100 µM
- IC50 [8]: > 100 µM
- IC50 [9]: > 100 µM
- IC50 [10]: > 100 µM

Structure (SMILES): C[C@]12C/C(=N/O)C(=O)C=C1CC[C@@H]1[C@@H]2CC[C@@]2(C)[C@H]1CC[C@@]2(O)Cc1ccccn1
- IC50 [1]: > 100 µM
- IC50 [2]: 51.3 µM
- IC50 [6]: > 100 µM
- IC50 [7]: > 100 µM
- IC50 [8]: > 100 µM
- IC50 [9]: > 100 µM
- IC50 [10]: > 100 µM

Structure (SMILES): C[C@]12C/C(=C/O)C(=O)C=C1CC[C@@H]1[C@@H]2CC[C@@]2(C)[C@H]1CC[C@@]2(O)Cc1ccccn1
- IC50 [1]: > 100 µM
- IC50 [2]: 34.4 µM
- IC50 [6]: 19 µM
- IC50 [7]: > 100 µM
- IC50 [8]: > 100 µM
- IC50 [9]: > 100 µM
- IC50 [10]: > 100 µM

Structure (SMILES): C[C@]12CCC(=O)C(O)=C1CC[C@@H]1[C@@H]2CC[C@]2(C)C(=O)CC[C@@H]12 [FORMESTANE]
- IC50 [1]: > 100 µM
- IC50 [2]: 55.5 µM
- Activity [3]: 54.8%
- Activity [4]: 19.48%
- Activity [5]: 24.54%
- IC50 [6]: > 100 µM
- IC50 [7]: > 100 µM
- IC50 [9]: 48.4 µM
- IC50 [10]: > 100 µM
- Activity [11]: 11.5%
- Activity [12]: 1.18%

Structure (SMILES): C[C@]12CC[C@H](O)CC1=CC[C@@H]1[C@@H]2CC[C@@]2(C)[C@H]1CC[C@@]2(O)Cc1ccccn1
- IC50 [1]: > 100 µM
- IC50 [2]: 96.1 µM
- IC50 [6]: > 100 µM
- IC50 [7]: 48.2 µM
- IC50 [8]: 75.2 µM
- IC50 [9]: 6.3 µM
- IC50 [10]: > 100 µM

Structure (SMILES): C[C@]12CCNC(=O)C=C1CC[C@@H]1[C@@H]2CC[C@]2(C)/C(=C/c3ccccn3)CC[C@@H]12
- IC50 [1]: > 100 µM
- IC50 [2]: 32.2 µM
- IC50 [6]: 12.7 µM
- IC50 [7]: > 100 µM
- IC50 [8]: > 100 µM
- IC50 [9]: 60.1 µM
- IC50 [10]: 19.8 µM

Structure (SMILES): C[C@]1(CC#N)C(C#N)=CC[C@@H]2[C@@H]1CC[C@@]1(C)[C@H]2CC[C@@]1(O)Cc1ccccn1
- IC50 [1]: > 100 µM
- IC50 [2]: 18.2 µM
- Activity [3]: 46.06%
- Activity [4]: 31.34%
- Activity [5]: 21.12%
- IC50 [6]: 7.9 µM
- IC50 [7]: 71.8 µM
- IC50 [8]: > 100 µM
- IC50 [9]: 31.5 µM
- IC50 [10]: > 100 µM
- Activity [12]: 1.48%
